Assay [1] addresses T1, Adenosine receptor A1 (Rattus norvegicus, UniProt P25099).
T1 sequence (P25099 whole entry): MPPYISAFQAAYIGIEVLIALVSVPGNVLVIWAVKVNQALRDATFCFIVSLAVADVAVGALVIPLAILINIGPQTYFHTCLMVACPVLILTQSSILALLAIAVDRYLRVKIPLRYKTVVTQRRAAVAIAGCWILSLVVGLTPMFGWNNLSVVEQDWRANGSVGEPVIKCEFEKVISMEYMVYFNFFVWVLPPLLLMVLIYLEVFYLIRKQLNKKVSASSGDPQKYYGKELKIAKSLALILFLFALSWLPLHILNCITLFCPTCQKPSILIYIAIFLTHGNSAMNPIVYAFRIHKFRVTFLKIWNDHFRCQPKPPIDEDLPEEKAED
Kind of assay: Potency against rat brain adenosine A1 receptor.

Assay [2] deals with Adenosine A2 receptor (Homo sapiens, UniProt P29275+P29274). The assay is described as follows: Potency against human platelet A2 adenosine receptor.
Assay [3] has as its target Adenosine A2 receptor (Rattus norvegicus, UniProt P29276+P30543). Kind of assay: Potency against PC12 cell A2 adenosine receptor by adenylate cyclase activation. Format: cell-based. To be noted: pc-12.
In assay [4] the target is T1, Adenosine receptor A1. The assay is described as follows: Potency against rat brain A1 adenosine receptor.
The target in assay [5] is T2, Adenosine receptor A1 (Rattus norvegicus) (UniProt P25099).
T2 sequence (whole entry): T1 sequence (P25099 whole entry)
Kind of assay: Potency against rat brain adenosine A1 receptor at 10 uM.

`CCNC(=O)[C@H]1OC(n2cnc3c(N(C)C)ncnc32)[C@H](O)[C@@H]1O` (some centres undefined): the concentration for half-maximal inhibition (IC50) (as a rule, the concentration needed to halve the response being measured) in assay [1] came to 10000 nM. The EC50 in assay [2] and in assay [3] was greater than 100000 nM each time. `CCNC(=O)[C@H]1O[C@@H](n2cnc3c(N[C@H](CC)Cc4ccccc4)ncnc32)[C@H](O)[C@@H]1O` registered an IC50 in assay [1] of 0.52 nM. This lies in the sub-nanomolar range. For `CCNC(=O)[C@H]1OC(n2cnc3c(NC4CCCCC4)ncnc32)[C@H](O)[C@@H]1O` (some centres undefined), the 50% effective concentration (EC50) – broadly, the concentration at which the effect is half-maximal – in assay [3] is listed as 1830 nM. Still for that read-out and setting: then `CCCCN(C)C(=O)[C@H]1OC(n2cnc3c(NC(CC)CC)ncnc32)[C@H](O)[C@@H]1O` (some centres undefined), with greater than 100000 nM.

Consider `Nc1ncnc2c1ncn2[C@@H]1O[C@H](C(=O)NC2CC2)[C@@H](O)[C@H]1O`, for which the EC50 in assay [2] is recorded as 260 nM. Take `NC(=O)[C@H]1OC(n2cnc3c(N)ncnc32)[C@H](O)[C@@H]1O` (some centres undefined): the IC50 in assay [1] came to 70 nM. Moreover, the EC50 is 5700 nM in assay [2] and 1560 nM in assay [3]. In assay [3], `CCC(CC)Nc1ncnc2c1ncn2C1O[C@H](C(=O)NC(C)C)[C@@H](O)[C@H]1O` (some centres undefined) had a half-maximal effective concentration (EC50) of 5100 nM. Besides, inhibition in assay [4] was half-maximal at 11 nM (IC50).

For `C=CCNC(=O)[C@H]1OC(n2cnc3c(NC(CC)CC)ncnc32)[C@H](O)[C@@H]1O` (some centres undefined), the IC50 in assay [1] is 17 nM. This compound returned a half-maximal effective concentration (EC50) in assay [3] of 8900 nM. On the same counts, the results for `CCC(CC)Nc1ncnc2c1ncn2C1O[C@H](C(=O)N(CC)CC)[C@@H](O)[C@H]1O` (some centres undefined) are 1700 nM and greater than 100000 nM. For `CCNC(=O)[C@H]1O[C@@H](n2cnc3c(N[C@@H](CC)Cc4ccccc4)ncnc32)[C@H](O)[C@@H]1O`, the IC50 in assay [1] turned out to be 26 nM. `CCC(CC)Nc1ncnc2c1ncn2C1O[C@H](C(=O)N(C)C)[C@@H](O)[C@H]1O` (some centres undefined): in assay [1], it took 13000 nM to reach half-maximal inhibition (IC50). Further, the half-maximal effective concentration (EC50) in assay [3] is greater than 100000 nM. On to `O=C([C@H]1OC(n2cnc3c(N4CCCCC4)ncnc32)[C@H](O)[C@@H]1O)N1CCCCC1` (some centres undefined), for which the inhibition – broadly, the change of the read-out against control, counted positive when it falls – in assay [5] turned out to be 0%. The concentration for a half-maximal effect (EC50) in assay [3] was greater than 100000 nM. For the compound `CCC(CC)Nc1ncnc2c1ncn2C1O[C@H](C(=O)NC2CC2)[C@@H](O)[C@H]1O` (some centres undefined), the EC50 in assay [3] stood at 540 nM. Further, in assay [4], it took 2 nM to reach half-maximal inhibition (IC50). `CCC(CC)Nc1ncnc2c1ncn2C1O[C@H](C(=O)NCc2ccccc2)[C@@H](O)[C@H]1O` (some centres undefined) came in with an IC50 in assay [1] of 104 nM. This compound showed an EC50 in assay [3] greater than 100000 nM. In turn, `CCC(CC)Nc1ncnc2c1ncn2C1O[C@H](C(=O)NC)[C@@H](O)[C@H]1O` (some centres undefined) displayed a half-inhibitory concentration (IC50) in assay [1] of 20 nM. The same compound gave an EC50 in assay [3] of 6400 nM. Consider `CCNC(=O)[C@H]1O[C@@H](n2cnc3c(N[C@H](C)Cc4ccccc4)ncnc32)[C@H](O)[C@@H]1O`, for which the IC50 in assay [1] came to 2.4 nM. Besides, the concentration for a half-maximal effect (EC50) in assay [2] is reported as 3100 nM; in assay [3] it was 980 nM. Compound `CCC(CC)NC(=O)[C@H]1OC(n2cnc3c(NC(CC)CC)ncnc32)[C@H](O)[C@@H]1O` (some centres undefined) showed an IC50 in assay [1] of 1400 nM. In addition, the EC50 in assay [3] was greater than 100000 nM. In turn, `CNC(=O)[C@H]1O[C@@H](n2cnc3c(N)ncnc32)[C@H](O)[C@@H]1O` displayed an IC50 in assay [1] of 105 nM. The compound further gave an EC50 in assay [2] of 1700 nM.

The record behind these values is ChEMBL document CHEMBL1123491, “N6-substituted N-alkyladenosine-5'-uronamides: bifunctional ligands having recognition groups for A1 and A2 adenosine receptors” (J Med Chem, 1986).
